Measurements reported in patent US20100267561A1, “HERBICIDAL PYRIDAZINONE DERIVATIVES” (priority 2007, published 2010).

Assays:
Experiment in all cases: Test B pre-/postemergence plant response
Assay type in all cases: in vivo
[1] = test system: surinam grass (Brachiaria decumbens); conditions: for Surinam Grass plant response rating: 8 g ai/ha
In short: (§1)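 Seeds were sown and sprayed preemergence, while plants at 2 to 18 cm (1- to 4-leaf stage) got postemergence sprays. Compounds were formulated in a non-phytotoxic solvent mixture with surfactant. After 13 to 15 days in a greenhouse, injury was rated visually against untreated controls, 0 (no effect) to 100 (complete control).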

[2] = test system: Italian ryegrass (Lolium multiflorum); conditions: for Ryegrass, Italian plant response rating: 8 g ai/ha
In short: as §1

[3] = test system: johnsongrass (Sorghum halepense); conditions: for Johnsongrass plant response rating: 8 g ai/ha
In short: as §1

kochia (Kochia scoparia) = conditions: for Kochia plant response rating: 8 g ai/ha
In short: as §1

[4] = test system: blackgrass (Alopecurus myosuroides); conditions: for Blackgrass plant response rating: 8 g ai/ha
In short: as §1

[5] = test system: bermudagrass (Cynodon dactylon); conditions: for Bermudagrass plant response rating: 8 g ai/ha
In short: as §1

[6] = test system: lambsquarters (Chenopodium album); conditions: for Lambsquarters plant response rating: 8 g ai/ha
In short: as §1

[7] = test system: eastern black (E.B.) nightshade (Solanum ptycanthum); conditions: Preemergence
In short: as §1

wild oat (Avena fatua) = conditions: for Oat, Wild plant response rating: 8 g ai/ha
In short: as §1

corn (Zea mays) = conditions: for Corn plant response rating: 8 g ai/ha
In short: as §1

[8] = test system: yellow nutsedge (Cyperus esculentus); conditions: for Nutsedge, Yellow plant response rating: 8 g ai/ha
In short: as §1

[9] = test system: morningglory (Ipomoea coccinea); conditions: for Morningglory plant response rating: 8 g ai/ha
In short: as §1

[10] = test system: giant foxtail (Setaria faberii); conditions: for Foxtail, Giant plant response rating: 8 g ai/ha
In short: as §1

[11] = test system: common ragweed (Ambrosia elation); conditions: for Ragweed plant response rating: 8 g ai/ha
In short: as §1

[12] = Postemergence, 16 g ai/ha, scale 0 to 100
[13] = Postemergence, 62 g ai/ha, scale 0 to 100, 0 no effect, 100 complete control
[14] = Preemergence, 16 g ai/ha, scale 0 to 100 (0 no effect, 100 complete control)
[15] = Preemergence, 31 g ai/ha, scale 0 to 100 (0 no effect, 100 complete control)
[16] = Postemergence, 31 g ai/ha, scale 0 to 100, 0 no effect, 100 complete control
[17] = Preemergence, 62 g ai/ha, scale 0 to 100
[18] = Preemergence, 31 g ai/ha, 0 to 100 scale, 0 no effect, 100 complete control

CCCc1cc(-c2ccc(Cl)cc2)nn1-c1c(O)cnn(C)c1=O [Compound 43]
90: Plant response rating, Surinam Grass [1, 14] | Plant response rating, Ryegrass, Italian [2, 12] | Plant response rating, Ryegrass, Italian [2, 14] | Plant response rating, Ryegrass, Italian [2, 15] | Plant response rating, Ryegrass, Italian [2, 17] | Ryegrass, Italian plant response rating ([2]; Preemergence, scale 0 to 100) | Plant response rating, Oat, Wild (wild oat (Avena fatua); [14])
80: Ryegrass, Italian plant response rating ([2]; postemergence, 0-100 scale) | Plant response rating, Johnsongrass [3, 16] | Plant response rating, Johnsongrass [3, 18] | Corn plant response rating (corn (Zea mays); postemergence, 0-100 scale)
95: Plant response rating, Surinam Grass [1, 12] | Plant response rating, Blackgrass [4, 16] | Plant response rating, Blackgrass [4, 14] | Plant response rating, Bermudagrass [5, 17] | Oat, Wild plant response rating (wild oat (Avena fatua); postemergence, 0-100 scale) | Plant response rating, Oat, Wild (wild oat (Avena fatua); [15]) | Plant response rating, Oat, Wild (wild oat (Avena fatua); [17]) | Foxtail, Giant plant response rating ([10]; Preemergence, scale 0 to 100)
85: Blackgrass plant response rating ([4]; postemergence, 0-100 scale) | Plant response rating, Blackgrass [4, 12] | Plant response rating, Corn (corn (Zea mays); [12]) | Plant response rating, Corn (corn (Zea mays); [16]) | Plant response rating, Corn (corn (Zea mays); [18]) | Foxtail, Giant plant response rating ([10]; postemergence, 0-100 scale)
0: Surinam Grass plant response rating ([1]; Preemergence, scale 0 to 100) | Johnsongrass plant response rating ([3]; postemergence, 0-100 scale) | Plant response rating, Johnsongrass [3, 12] | Kochia plant response rating (kochia (Kochia scoparia); postemergence, 0-100 scale) | Plant response rating, Kochia (kochia (Kochia scoparia); [12]) | Plant response rating, Kochia (kochia (Kochia scoparia); [16]) | Plant response rating, Kochia (kochia (Kochia scoparia); [13]) | Plant response rating, Kochia (kochia (Kochia scoparia); [14]) | Plant response rating, Kochia (kochia (Kochia scoparia); [18]) | Plant response rating, Kochia (kochia (Kochia scoparia); [17]) | Kochia plant response rating (kochia (Kochia scoparia); Preemergence, scale 0 to 100) | Bermudagrass plant response rating ([5]; Preemergence, scale 0 to 100 (0 no effect, 100 complete control)) | Plant response rating, Bermudagrass [5, 14] | Lambsquarters plant response rating ([6]; postemergence, 0-100 scale) | Plant response rating, Lambsquarters [6, 12] | Plant response rating, Lambsquarters [6, 16] | Plant response rating, Lambsquarters [6, 13] | Plant response rating, Lambsquarters [6, 14] | Plant response rating, Lambsquarters [6, 18] | Plant response rating, Lambsquarters [6, 17] | Lambsquarters plant response rating ([6]; Preemergence, scale 0 to 100) | Plant response rating, Nightshade, E. B. ([7]; 16 g ai/ha, scale 0 to 100 (0 no effect, 100 complete control)) | Plant response rating, Nightshade, E. B. ([7]; 31 g ai/ha, scale 0 to 100 (0 no effect, 100 complete control)) | Plant response rating, Nightshade, E. B. ([7]; 62 g ai/ha, scale 0 to 100) | Nightshade, E. B. plant response rating ([7]; 8 g ai/ha, scale 0 to 100) | Corn plant response rating (corn (Zea mays); Preemergence, scale 0 to 100) | Nutsedge, Yellow plant response rating ([8]; postemergence, 0-100 scale) | Plant response rating, Nutsedge, Yellow [8, 12] | Plant response rating, Nutsedge, Yellow [8, 16] | Plant response rating, Nutsedge, Yellow [8, 13] | Plant response rating, Nutsedge, Yellow [8, 14] | Plant response rating, Nutsedge, Yellow [8, 15] | Plant response rating, Nutsedge, Yellow [8, 17] | Nutsedge, Yellow plant response rating ([8]; Preemergence, scale 0 to 100) | Morningglory plant response rating ([9]; postemergence, 0-100 scale) | Plant response rating, Morningglory [9, 12] | Plant response rating, Morningglory [9, 16] | Plant response rating, Morningglory [9, 13] | Plant response rating, Morningglory [9, 14] | Plant response rating, Morningglory [9, 15] | Plant response rating, Morningglory [9, 17] | Morningglory plant response rating ([9]; Preemergence, scale 0 to 100) | Ragweed plant response rating ([11]; postemergence, 0-100 scale) | Plant response rating, Ragweed [11, 12] | Plant response rating, Ragweed [11, 16] | Plant response rating, Ragweed [11, 13] | Plant response rating, Ragweed [11, 14] | Plant response rating, Ragweed [11, 15] | Plant response rating, Ragweed [11, 17] | Ragweed plant response rating ([11]; Preemergence, scale 0 to 100)
65: Surinam Grass plant response rating ([1]; postemergence, 0-100 scale) | Plant response rating, Johnsongrass [3, 14] | Plant response rating, Bermudagrass [5, 16] | Plant response rating, Bermudagrass [5, 18]
20: Johnsongrass plant response rating ([3]; Preemergence, scale 0 to 100) | Bermudagrass plant response rating ([5]; postemergence, 0-100 scale)
70: Blackgrass plant response rating ([4]; Preemergence, scale 0 to 100) | Oat, Wild plant response rating (wild oat (Avena fatua); Preemergence, scale 0 to 100) | Plant response rating, Corn (corn (Zea mays); [14])
45: Plant response rating, Bermudagrass [5, 12]
100: Plant response rating, Surinam Grass [1, 13] | Plant response rating, Surinam Grass [1, 15] | Plant response rating, Surinam Grass ([1]; Preemergence, 62 g ai/ha, 0 to 100 scale, 0 no effect, 100 complete control) | Plant response rating, Ryegrass, Italian [2, 16] | Plant response rating, Ryegrass, Italian [2, 13] | Plant response rating, Johnsongrass [3, 13] | Plant response rating, Blackgrass [4, 13] | Plant response rating, Blackgrass [4, 18] | Plant response rating, Blackgrass [4, 17] | Plant response rating, Oat, Wild (wild oat (Avena fatua); [12]) | Plant response rating, Oat, Wild (wild oat (Avena fatua); [16]) | Plant response rating, Oat, Wild (wild oat (Avena fatua); [13]) | Plant response rating, Corn (corn (Zea mays); [13]) | Plant response rating, Corn (corn (Zea mays); [17]) | Plant response rating, Foxtail, Giant [10, 13] | Plant response rating, Foxtail, Giant [10, 14] | Plant response rating, Foxtail, Giant [10, 18] | Plant response rating, Foxtail, Giant [10, 17]
98: Plant response rating, Johnsongrass [3, 17] | Plant response rating, Foxtail, Giant [10, 12] | Plant response rating, Foxtail, Giant [10, 16]
